Data on one molecule can be found in patent US6316423A, “Method of treating ischemic, hypoxic and anoxic brain damage” (priority 1999, dated 2001).

Common to all, as to assay type: in vivo, gerbil
The subject of data set [1] is microtubule associated protein 2 (MAP-2). The data set is described as follows: MAP-2 preservation in CA1 after 10 minute ischemia, postischemic ADAC. To be noted: 100 μg/kg at 2, 6 or 12 h postischemia. An excerpt: Animals were allowed to survive either 2 or 7 days. They were then perfused with a freshly made 3.5 solution of paraformaldehyde in phosphate buffered saline (pH 7.4). After removal, brains were cut at 40 μm, and the sections were stained immunohistochemically with a monoclonal MAP-2 antibody (Sigma) diluted 1:500-1000. Standard peroxidase anti-peroxidase procedure of ABC complex with Vector kit (Hsu et al., 1981) intensified with heavy metal (Adams, 1981) was used. For immunofluorescent studies, the sections were incubated at 4° C. with the primary antibody overnight. Following three 5-10 minute washes, the sections were exposed to the secondary antibodies, i.e., fluorescein isothiocyanate, rhodamine isothiocyanate, and Texas Red conjugated goat anti-mouse IgG. The secondary antibodies were diluted at 1:20-100 in 0.1M phosphate buffer. Qualitative morphological and immunostaining characteristics of the sections were studied using an epifluorescent microscope (Nikon Labophot) equipped with filters (Nikon B2 and Nikon G1B) appropriate for the detection of the secondary antibodies.
Quantitative analysis of MAP-2 presence in the dendritic fields of CA1 was made using a computer image analysis system (Biographics Inc., Winston-Salem, N.C.).

The test system of data set [2] is gerbils exposed to 10 minutes of brain ischemia. Put plainly: Dose-response of preischemic ADAC on survival after 10 minutes of ischemia. Particulars: 15 min preischemia, control 40%. An excerpt: This higher selectivity results in lower quantities of drug administration required for maximum neuroprotection. Lower administered quantities in turn, result in attenuation or elimination of side-effects.

The test system is the same in data set [3]. The data set is described as follows: Mortality after 10 min ischemia, preischemic ADAC. To be noted: 0.1 mg/kg preischemic, entire monitoring period (14 days); control 60%. As for the experimental part: Seven control animals out of 20 (35%) died during the initial 12 hour period following 10 minutes of ischemia. Three additional control gerbils died between day 1 and 3, and 2 additional animals died 5-8 hours following a water maze trial by day 14. Thus, the overall death rate of the control group was 60%. In contrast, in the ADAC-treated group only 2 animals out of 10 died (20%) during the entire monitoring period, one on day 3 and one on day 6.
Prior to subjecting the gerbils to 10 minutes of ischemia, the gerbils were randomly divided into the control and the drug testing groups. […] During post-ischemic recovery, animals were monitored each day for signs of functional damage (e.g., pareses) that might affect their subsequent water maze performance. Postischemic mortality was also monitored every day.

Data set [4] has the same test system. Put plainly: Chronic ADAC treatment followed by 10 minutes of ischemia. To be noted: 0.025, 0.050 or 0.075 mg for 60 days, one day rest. On the procedure:
The gerbils were then subjected to 10 minutes of brain ischemia and allowed to recover.

Data set [5] deals with cortex, hippocampal CA1 sector, and striatum. Put plainly: Nissl histology of neuronal loss, preischemic ADAC. To be noted: two weeks after ischemia. On the procedure: The gerbils of Example 3 were subjected to examination procedures subsequent to the water maze tests described in Example 3. One day after the last postischemic water maze trial, all animals were heavily anesthetized with Nembutal and perfused through the aorta with buffered (pH 7.4) formaldehyde. Frozen sections of the brains were made as described previously (Lin et al., supra). The sections were stained using the method of Nissl, and the extent of the neuronal loss was determined in the cortex, hippocampal CA1 sector, and striatum following the published protocol of von Lubitz et al. (von Lubitz, 1992, supra; von Lubitz, 1994, supra).

Data set [6] can be described thus: Cardiovascular effects and body temperature of ADAC in nonischemic (normoxic) gerbils. Particulars: for Blood pressure / Cardiac rate: 100 μg/kg ADAC, ± SEM. An excerpt:
Blood pressure was monitored using a Harvard Apparatus (South Natick, Mass.) rat tail blood pressure monitor (von Lubitz et al., 1994 supra), while a Silogic EC-60 cardiac and respiratory monitor (Stewartstown, Pa.) was used to measure cardiac rate. EEG clip electrodes were attached to the unshaven loose skin of the armpits and to both thighs saturated with EEG gel.

`NCCNC(=O)Cc1ccc(NC(=O)Cc2ccc(Nc3ncnc4c3ncn4[C@@H]3O[C@H](CO)[C@@H](O)[C@H]3O)cc2)cc1` [ADAC]: the “loss of MAP-2 density in CA1” value in data set [1] (2 days after ischemia, control 50% loss) is recorded as “no loss”. Moreover, in data set [1] (7 days after occlusion), the “decrease of MAP-2 density in CA1” value is recorded as “approximately 15%”. In addition, the figures for the survival rate in data set [2] (0.025 mg/kg) and in data set [2] (0.050 mg/kg) were 30% and 60%, respectively. In addition, the “survival rate (plateau)” value in data set [2] (75, 100, or 200 mg/kg (so in the source)) is on record as 80%. The molecule also displayed a death rate in data set [3] of 20%. In data set [4] (FIG. 7A), the “survival rate after chronic treatment followed by ischemia” value is “attenuated the effects of brain ischemia”. For the same molecule, the “neuronal loss after chronic treatment followed by ischemia” value in data set [4] (FIG. 7B) was “attenuated the effects of brain ischemia”. The “hippocampal CA1 neurons surviving” value in data set [5] (control 23%) is recorded as 81%. Also, the “neuronal loss in cortex and striatum” value in data set [5] (control 83% (cortex) and 25% (striatum) surviving) was “complete elimination of neuronal loss”. In addition, the Blood pressure was 83 ± 1 mm Hg in data set [6] (5 min post injection), 81 ± 1 mm Hg in data set [6] (15 min post injection), 82 ± 2 mm Hg in data set [6] (30 min post injection) and 80 ± 2 mm Hg in data set [6] (60 min post injection). Besides, the Cardiac rate is on record as 385 ± 6 beats/min in data set [6] (5 min post injection), 382 ± 7 beats/min in data set [6] (15 min post injection), 383 ± 8 beats/min in data set [6] (30 min post injection) and 383 ± 6 beats/min in data set [6] (60 min post injection). In data set [6] (100 μg/kg, nonischemic gerbils), the “changes of body temperature” value is “did not cause any significant changes”. For the same molecule, the “changes of cardiac rate” value in data set [6] (100 μg/kg, nonischemic gerbils) is listed as “did not cause any significant changes”. Also, the “changes of mean arterial blood pressure” value in data set [6] (100 μg/kg, nonischemic gerbils) is recorded as “did not cause any significant changes”. In addition, the “bradycardia, hypotension, or decreased cerebral (cortical) blood flow” value in data set [6] (0.1 mg/kg intraperitoneal, normoxic gerbils, within 120 minutes) is recorded as “not accompanied by a statistically significant bradycardia, hypotension, or decreased cerebral (cortical) blood flow”. Also, the “cardiovascular effects at higher concentrations” value in data set [6] (0.3 mg/kg and beyond, within 30 minutes of administration) was “manifests cardiovascular effects within 30 minutes of administration of 0.3 mg/kg and beyond”.
